Measured values as given in paper PMC7586963, “Coumarin‐Tagged Dinuclear Trithiolato‐Bridged Ruthenium(II)⋅Arene Complexes: Photophysical Properties and Antiparasitic Activity” (Chembiochem, 2020).
Where two headings read alike, the source gives them in different places.

What was measured:
in vitro = conditions: human
Experimental: (§1) In addition, the effects on uninfected HFF host cells were assessed. […] The viability of HFF cultures following drug treatments was measured by alamarBlue assay, and the proliferation of T. gondii was quantified by measuring β‐galactosidase activity.

[1] = test system: T. gondii β-gal tachyzoites; assay: T. gondii β-gal tachyzoite proliferation in HFF (β-galactosidase/CPRG assay); conditions: for IC50: read-out: IC50 against T. gondii β-gal tachyzoite proliferation; for activity at 0.1 µM / activity at 1 µM: read-out: T. gondii β-gal proliferation (%); for T. gondii β-gal proliferation (%): 3 days, relative to 0.1 % DMSO control
Experimental: The compounds presented in this study were screened for biological activity in vitro against T. gondii β‐gal, a transgenic strain that constitutively expresses β‐galactosidase, which is grown in HFF monolayers. In addition, the effects on uninfected HFF host cells were assessed. […] The viability of HFF cultures following drug treatments was measured by alamarBlue assay, and the proliferation of T. gondii was quantified by measuring β‐galactosidase activity.
In vitro culture of parasites and host cells: If not stated otherwise, all tissue culture media were purchased from Gibco‐BRL, and biochemical reagents were from Sigma‐Aldrich). Human foreskin fibroblasts (HFF) were maintained in DMEM containing 10 % fetal calf serum (FCS; Gibco‐BRL) and antibiotics as described earlier.10 T. gondii β‐gal (transgenic T. gondii RH expressing the β‐galactosidase gene from E. coli 69 were maintained in HFF cells, and were isolated and separated from their host cells as described.10
In vitro assessment of drug efficacy: To study the effects of compounds against T. gondii tachyzoites in vitro, 1 mM stock solutions of complexes were prepared in DMSO, and stored at −20 °C. For assessment of drug efficacy against T. gondii tachyzoites, parasites were isolated and assays were performed using HFF as host cells as previously described.10 In short, 5×10^3 HFF cells per well were grown to confluence in a 96‐well plate in phenol‐red free culture medium at 37 °C with 5 % CO2. […] Initial assessments of drug efficacy were done by exposing parasite cultures to 0.1 and 1 μM of each compound for a period of three days, or 0.1 % DMSO was added as a control. […] After three days of incubation at 37 °C, 5 % CO2, medium was removed, and cell cultures were permeabilized by using 90 μL PBS containing 0.05 % Triton‐X‐100. After addition of 10 μL of 5 mM chlorophenol red‐β‐D‐galactopyranoside (CPRG; Roche Diagnostics) dissolved in PBS, the absorption shift was measured at 570 nm wavelength at various time points on a VersaMax multiplate reader (Bucher Biotec, Basel, Switzerland). For the initial screening at 0.1 and 1 μM, the activity, measured as the release of chlorophenol red over time, was calculated as percentage from DMSO control, which represented 100 % of T. gondii β‐gal growth. […] IC50 values were calculated after the logit‐log‐transformation of relative growth and subsequent regression analysis. All calculations were performed using the corresponding software tool contained in the Excel software package (Microsoft).

[2] = test system: human foreskin fibroblasts (HFF)
Experimental: as §1

[3] = test system: human foreskin fibroblasts (HFF); assay: Cytotoxicity on uninfected confluent HFF (alamarBlue assay); conditions: 2.5 μM
Experimental: as §1

| Compound | viability at 3 days, 0.1 µM (in vitro) | viability at 3 days, 1 µM (in vitro) | activity at 0.1 µM ([1]; Toxoplasma gondii, 72 h) | activity at 1 µM ([1]; Toxoplasma gondii, 72 h) | other results |
| --- | --- | --- | --- | --- | --- |
| CCc1nc(N)nc(N)c1-c1ccc(Cl)cc1 [pyrimethamine, reference compound] | – | – | – | – | viability at 2.5 µM (in vitro): 99%; IC50 ([1]; Toxoplasma gondii, 72 h): 326 nM |
| NCCCCNC(=O)c1cc2cc3c4c(c2oc1=O)CCCN4CCC3 [Compound 10] | 124 ± 5% | 69 ± 9% | 101 ± 8% | 113 ± 7% | – |
| CCN(CC)c1ccc2cc(C(=O)NCCCN)c(=O)oc2c1 [Compound 8] | 96 ± 9% | 85 ± 6% | 117 ± 10% | 114 ± 13% | – |
| [(η6-p-MeC6H4Pri)2Ru2(µ2-SCH2C6H4-p-But)(µ2-SC6H4-p-OH)2]Cl [Compound 19] | – | – | – | – | HFF viability (%) ([2]; 0.1 µM): 62 ± 8%; HFF viability (%) ([2]; 1 µM): 56 ± 7%; HFF viability at 2.5 μM ([2]; 2.5 μM): 2%; reduction in HFF viability [3]: 98%; T. gondii β-gal proliferation (%) ([1]; 0.1 µM): 3 ± 1%; T. gondii β-gal proliferation (%) ([1]; 1 µM): 2 ± 0%; IC50 ([1]; three days of incubation, in HFF host cells, 6 concentrations 0.03-1 μM): 115 nM |
| O=C(O)c1cc2cc3c4c(c2oc1=O)CCCN4CCC3 [Dye2‐CO2H, 11‐oxo‐2,3,6,7‐tetrahydro‐1H,5H,11H‐pyrano[2,3‐f]pyrido[3,2,1‐ij]quinoline‐10‐carboxylic acid, reference compound] | 106 ± 1% | 105% | 69 ± 11% | 92 ± 6% | HFF viability (%) ([2]; 0.1 µM): did not affect viability of HFF; HFF viability (%) ([2]; 1 µM): did not affect viability of HFF; T. gondii β-gal proliferation (%) ([1]; 0.1 µM): 69% |
| CCN(CC)c1ccc2cc(C(=O)NCCCCNC(=O)OC(C)(C)C)c(=O)oc2c1 [Compound 6] | 98 ± 8% | 82 ± 4% | 137 ± 9% | 125 ± 16% | – |
| CCN(CC)c1ccc2cc(C(=O)NCCCCN)c(=O)oc2c1 [Compound 9] | 125 ± 20% | 111 ± 4% | 114 ± 4% | 127 ± 4% | – |
| CCN(CC)c1ccc2cc(C(=O)NCCCNC(=O)OC(C)(C)C)c(=O)oc2c1 [Compound 5] | 118 ± 10% | 88 ± 10% | 131 ± 3% | 118 ± 22% | – |
| CC(C)(C)OC(=O)NCCCCNC(=O)c1cc2cc3c4c(c2oc1=O)CCCN4CCC3 [Compound 7] | 95 ± 9% | 96 ± 6% | 132 ± 6% | 148 ± 5% | – |
